Results published in EP0044212B1, “Herbicidal o-alkylsulfonyloxy- and o-alkylsulfonylamino-benzenesulfonamides” (E.I. DU PONT DE NEMOURS AND COMPANY, priority 1980, dated 1982).

What was measured:
Peanut = test: Test C pre-emergence on Fallsington silt loam soil; type: in vivo, peanuts; settings: 0.03 kg/ha, 28 days
Text: (§1) The high herbicidal activity of two of the compounds from within the scope of the invention is evident from the results obtained in this test. The experiment concerned pre-emergence applications on soil. The containers used were 25 cm diameter plastic pots filled with Fallsington silt loam. One set of pots was planted to weeds, the seeds of which were uniformly mixed with the top 1.2 cm layer of soil. The species selected were: johnsongrass (Sorghum halepense), barnyardgrass (Echinochloa crusgalli), crabgrass (Digitaria sanguinalis), giant foxtail (Setaria faberii), velvetleaf (Abutilon theophrasti), jimsonweed (Datura stramonium), mustard (Brassica arvensis), and pigweed (Amaranthus retroflexus). Another set of pots were planted to the following crops with from one to four species per pot: corn (planting depth 3.7 cm), cotton, soybeans, sunflower, Clinton oats, wheat, Black Valentine beans, rice, sorghum, peas, flax, and peanuts (all at 2.5 cm depth), cucumbers, cabbage, alfalfa, safflower, sugarbeets, tomato, spinach, barley, and Kentucky bluegrass (all at 1.2 cm depth). Immediately after planting, the test chemical was applied to the soil surfaces dissolved in a non-phytotoxic solvent. One pot from the weed phase and one of each of the crop species were left untreated for the purpose of comparison. […]

Bean = test: Test C pre-emergence on Fallsington silt loam soil; type: in vivo, Black Valentine beans; settings: 0.03 kg/ha, 28 days
Text: as §1

Cucumber = test: Test C pre-emergence on Fallsington silt loam soil; type: in vivo, cucumbers; settings: 0.03 kg/ha, 28 days
Text: as §1

soybeams = test: Crop selectivity statement (greenhouse tests); type: in vivo; settings: summary statement
Text: (§2) The activity of the compounds of formula I was investigated in a number of greenhouse tests.

Rice = test: Test F over-the-top soil/foliage treatment; type: in vivo; settings: soil/foliage spray, ~14 days
Procedure, shortened: (§3)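 Visual injury ratings, made about fourteen days after spraying by comparison with untreated plants, reflect an over-the-top application of compound in non-phytotoxic solvent. Spraying took place roughly 14 days after seeding into Woodstown sandy loam under greenhouse conditions.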

Soybeans [1] = test: Test F over-the-top soil/foliage treatment; type: in vivo; settings: for Soybeans response rating: soil/foliage spray, ~14 days
Procedure, shortened: as §3

Soybeans [2] = test: Test G broadleaf herbicidal properties, overall spray; type: in vivo, soybean; settings: 0.015 kg/ha, 22 days after treatment
Protocol: Approximately 12 soybean plants were grown in a 25 cm. diameter plastic pot. In another pot of equal size the following broadleaf plant species were grown: sugarbeets, velvetleaf, Sesbania, Cassia, mustard, morningglory, alfalfa, jimsonweed, and cocklebur. The plant foliage and surrounding soil were treated with the test chemical dissolved in a non-phytotoxic solvent as an overall spray at the rate of 0.015 kg/ha, when the plants were 17 days old. Visual ratings of herbicidal effects were made 22 days after treatment utilizing the rating system described for Test A.

Quackgrass = test: Test D pre-/post-emergence weed control in cereals; type: in vivo, Agropyron repens; settings: 20 days
Text: (§4) Two ten-inch in diameter plastic pans lined with polyethylene liners were filled with prepared Fallsington slit loam soil. One pan was planted with seeds of wheat (Triticum aestivum), barley (Hordeum vulgarel, wild oats (Avena fatua), downy brome (Bromus tectorum), cheatgrass (Bromus secalinus), blackgrass (Alopecurus myosuroides), annual bluegrass (Poa annual, green foxtail (Setaria viridis), quack grass (Agropyron repens), Italian ryegrass (Lolium multiflorum) and ripgut brome (Bromus rigidus). The other pan was planted with seeds of Russian thistle (Salsola kali), tansy mustard (Descuraina pinnata), smartweed (Polygonum pensylvanicum), tumble mustard (Sisymbrium altissium) kochia (Kochia scoparia), shepherd's purse (Capsella bursa-pastoris), Matricaria inodora, black nightshade (Solanum nigrum), yellow rocket (Barbarea vulgaris), wild mustard (Brassica kaber) and wild buckwheat (Polygonum convolvulus). The above two pans were treated pre-emergence. At the same time two pans in which the above plant species were growing were treated post-emergence. Plant height at the time of treatment ranged from 1-15 cm depending on plant species.
(§5) The compounds applied were diluted with a non-phytotoxic solvent and sprayed over-the-top of the pans. An untreated control and a solvent alone control were included for comparison. All treatments were maintained in the greenhouse for 20 days at which time the treatments were compared to the controls and the effects visually rated. The recorded data, presented in Table D, indicate that certain compounds from within the scope of the invention have utility for pre- and/or post-emergence weed control in cereal crops such as wheat and barley.

rice and corn = test: Crop selectivity statement (greenhouse tests); type: in vivo; settings: summary statement
Text: as §2

Wheat = test: Test D pre-/post-emergence weed control in cereals; type: in vivo, Triticum aestivum; settings: 20 days
Text: as §4, §5

Barley = test: Test D pre-/post-emergence weed control in cereals; type: in vivo, Hordeum vulgarel; settings: 20 days
Text: as §4, §5

Ripgut Brome = test: Test D pre-/post-emergence weed control in cereals; type: in vivo, Bromus rigidus; settings: 20 days
Text: as §4, §5

Arrowhead = test: Test E application to paddy water after transplanting of rice; type: in vivo, Sagittaria spp.
Text: Test samples were formulated and applied directly to the paddy water three days after transplanting of rice. The test was maintained in a greenhouse, and plant response ratings were taken at the stated intervals after application.

Shepherd's Purse = test: Test D pre-/post-emergence weed control in cereals; type: in vivo, Capsella bursa-pastoris; settings: 20 days
Text: as §4, with “Plant height at the time of treatment ranged from 1-15 cm depending on plant species.” left out
The compounds applied were diluted with a non-phytotoxic solvent and sprayed over-the-top of the pans. […] The recorded data, presented in Table D, indicate that certain compounds from within the scope of the invention have utility for pre- and/or post-emergence weed control in cereal crops such as wheat and barley.

Velvetleaf = test: Test F over-the-top soil/foliage treatment; type: in vivo, Abutilon theophrasti; settings: soil/foliage spray, ~14 days
Protocol: The test chemicals, dissolved in a non-phytotoxic solvent, were applied in an overall spray to the foliage and surrounding […] of selected plant species. […] Approximately fourteen days after treatment, all species were visually compared to untreated controls and rated for response to treatment.
All plant species were seeded in Woodstown sandy loam soil and grown in a greenhouse. The following species were grown in soil contained in plastic pots (25 cm diameter by 13 cm deep): soybeans, cotton, alfalfa, corn, rice, wheet, sorghum, velvetleaf (Abutilon theophrasti), sesbania (Sesbania exaltata), Cassia (Cassia tora), morningglory (Ipomoea hederacea), jimsonweed (Datura stramonium), cocklebur (Xanthium pensylvanicum), crabgrass (Digitaria spp.), nutsedge (Cyperus rotundus), barnyardgrass (Echinochloa crusgalli), giant foxtail (Setaria faberii) and wild oats (Avena fatua). The following species were grown in soil in a paper cup (12 cm diameter by 13 cm deep): sunflower, sugarbeets, and mustard. All plants were sprayed approximately 14 days after planting.

COc1cc(OC)nc(NC(=O)NS(=O)(=O)c2ccccc2OS(C)(=O)=O)n1 [Compound 1, N-[(4,6-Dimethoxypyrimidin-2-yl)aminocarbonyl]-2-hydroxybenzenesulfonamide, methanesulfonate]
Peanut response rating (Peanut): 6G | Bean response rating (Bean): 0 | Cucumber response rating (Cucumber): 5G

CCCS(=O)(=O)Oc1ccccc1S(=O)(=O)NC(=O)Nc1nc(C)nc(OC)n1 [Compound 39, 2-hydroxy-N-[(4-methoxy-6-methyl-1,3,5-triazin-2-yl)aminocarbonyl]benzenesulfonamide, 1-propanesulfonate]
selectivity on soybeams (soybeams): shows selectivity on soybeams | Rice response rating (Rice; 0.007 kg/ha): 2G | Rice response rating (Rice; 0.03 kg/ha): 4G | Rice response rating (Rice; 0.06 kg/ha): 0 | Rice response rating (Rice; 0.12 kg/ha): 0 | post-emergence control of weeds in soybeans (Soybeans [1]; conclusion from Test F): has utility for the post-emergence control of weeds in soybeans | Soybeans response rating (Soybeans [1]; 0.007 kg/ha): 0 | Soybeans response rating (Soybeans [1]; 0.03 kg/ha): 4G | Soybeans response rating (Soybeans [2]): 0

CCCS(=O)(=O)Oc1ccccc1S(=O)(=O)NC(=O)Nc1nc(OC)cc(OC)n1 [Compound 36, N-[(4,6-dimethoxypropimidin-2-yl)aminocarbonyl]-2-hydroxybenzenesulfonamide, 1-propanesulfonate]
Quackgrass response rating (Quackgrass; Post-Emergence, 0.015 kg/ha): 0 | Quackgrass response rating (Quackgrass; Post-Emergence, 0.06 kg/ha): 0 | Quackgrass response rating (Quackgrass; Pre-Emergence, 0.015 kg/ha): 0 | Quackgrass response rating (Quackgrass; Pre-Emergence, 0.06 kg/ha): 2G | selectivity on rice and corn (rice and corn): shows selectivity on rice and corn | Wheat response rating (Wheat; Post-Emergence, 0.015 kg/ha): 0 | Wheat response rating (Wheat; Post-Emergence, 0.06 kg/ha): 0 | Wheat response rating (Wheat; Pre-Emergence, 0.015 kg/ha): 0 | Wheat response rating (Wheat; Pre-Emergence, 0.06 kg/ha): 0 | Barley response rating (Barley; Post-Emergence, 0.015 kg/ha): 0 | Barley response rating (Barley; Post-Emergence, 0.06 kg/ha): 0 | Barley response rating (Barley; Pre-Emergence, 0.015 kg/ha): 0 | Barley response rating (Barley; Pre-Emergence, 0.06 kg/ha): 0 | Ripgut Brome response rating (Ripgut Brome; Post-Emergence, 0.015 kg/ha): 0 | Ripgut Brome response rating (Ripgut Brome; Post-Emergence, 0.06 kg/ha): 2G | Ripgut Brome response rating (Ripgut Brome; Pre-Emergence, 0.015 kg/ha): 2G | Arrowhead*** 8 Weeks (Arrowhead; 25 g/ha in paddy water): 0 | Arrowhead*** 8 Weeks (Arrowhead; 100 g/ha in paddy water): 0 | Shepherd's Purse response rating (Shepherd's Purse; Post-Emergence, 0.06 kg/ha): 10C | Shepherd's Purse response rating (Shepherd's Purse; Pre-Emergence, 0.015 kg/ha): 7G

Cc1cc(C)nc(NC(=O)NS(=O)(=O)c2ccccc2OS(C)(=O)=O)n1 [Compound 3, N-[(4,6-dimethylpyrimidin-2-yl)aminocarbonyl]-2-hydroxybenzenesulfonamide, methanesulfonate]
Velvetleaf response rating (Velvetleaf; 0.003 kg/ha): 7G | Velvetleaf response rating (Velvetleaf; 0.015 kg/ha): 5G
